Assay results from ChEMBL document CHEMBL1151694, “Efficient synthesis and biological evaluation of two modafinil analogues” (2008).
Active and inactive are the calls of the source. No cut-off for these calls is given here.

Assays:
Cortex [1] = test: Effect on spontaneous [3H]5HT […] in Sprague-Dawley rat brain cortical slices at 1 to 30 uM measured after 45 mins of superfusion; assay type: functional, tissue-based
Cortex [2] = test: Effect on electrically-evoked [3H]5HT […] in Sprague-Dawley rat brain cortical slices administered 15 mins before electrical challenge at 30 uM after 85 mins of superfusion relative to control; assay type: functional
Cortex [3] = test: Effect on electrically-evoked [3H]5HT […] in Sprague-Dawley rat brain cortical slices administered 15 mins before electrical challenge after 85 mins of superfusion relative to control; assay type: functional, tissue-based
Cortex [4] = test: Effect on spontaneous [3H]5HT […] in Sprague-Dawley rat brain cortical slices at 0.1 to 100 uM measured after 45 mins of superfusion; assay type: functional, tissue-based
Cortex [5] = test: Effect on electrically-evoked [3H]5HT […] in Sprague-Dawley rat brain cortical slices administered 15 mins before electrical challenge at 100 uM after 85 mins of superfusion relative to control; assay type: functional, tissue-based
Cortex [6] = test: Effect on spontaneous [3H]5HT […] in Sprague-Dawley rat brain cortical slices at 0.1 to 30 uM measured after 45 mins of superfusion; assay type: functional, tissue-based

With `NC(=O)C[S+]([O-])C(c1ccccc1)c1ccccc1` (configuration not stated) [MODAFINIL] the Activity (Cortex [1]) was “inactive”, the Activity (Cortex [2]) was 217% and the Activity (Cortex [3]) was “Dose-dependent effect”.
`NC(=O)CC(=O)C(c1ccccc1)c1ccccc1` was tested, and the Activity (Cortex [4]) was “inactive” and the Activity (Cortex [5]) was “Active”.
In the case of `CC(C)NC(=O)CC(=O)C(c1ccccc1)c1ccccc1`, the Activity (Cortex [6]) is reported as “inactive” and the Activity (Cortex [3]) is reported as “Dose-dependent effect”.
